The target of test [1] is human pancreas chymotrypsin. Nature of the test: Chromogenic enzyme activity assay, chymotrypsin. The format is biochemical. Conditions: for Ki: human pancreas chymotrypsin, Table 2.
In the next test the target is bovine pancreas trypsin (Bos taurus (Bovine), UniProt P00760). Nature of the test: Chromogenic enzyme activity assay, trypsin. As to conditions: Table 2. The class given is biochemical.
The target in another test is human HTRA1 (Homo sapiens (Human), UniProt Q92743). Nature of the test: Chromogenic enzyme activity assay, HTRA1.
Sequence of human HTRA1 (Q92743 158-480): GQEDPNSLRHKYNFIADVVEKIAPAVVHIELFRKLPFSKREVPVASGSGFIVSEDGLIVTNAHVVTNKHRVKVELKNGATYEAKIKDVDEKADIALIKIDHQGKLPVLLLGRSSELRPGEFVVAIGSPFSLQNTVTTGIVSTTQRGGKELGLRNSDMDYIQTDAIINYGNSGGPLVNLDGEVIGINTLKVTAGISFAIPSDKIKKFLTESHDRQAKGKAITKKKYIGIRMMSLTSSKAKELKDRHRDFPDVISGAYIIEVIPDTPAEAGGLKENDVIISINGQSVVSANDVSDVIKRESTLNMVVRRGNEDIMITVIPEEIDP
In a further test the target is human HTRA3 (Homo sapiens (Human), UniProt P83110). Nature of the test: Chromogenic enzyme activity assay, HTRA3.
Sequence of human HTRA3 (P83110 111-436): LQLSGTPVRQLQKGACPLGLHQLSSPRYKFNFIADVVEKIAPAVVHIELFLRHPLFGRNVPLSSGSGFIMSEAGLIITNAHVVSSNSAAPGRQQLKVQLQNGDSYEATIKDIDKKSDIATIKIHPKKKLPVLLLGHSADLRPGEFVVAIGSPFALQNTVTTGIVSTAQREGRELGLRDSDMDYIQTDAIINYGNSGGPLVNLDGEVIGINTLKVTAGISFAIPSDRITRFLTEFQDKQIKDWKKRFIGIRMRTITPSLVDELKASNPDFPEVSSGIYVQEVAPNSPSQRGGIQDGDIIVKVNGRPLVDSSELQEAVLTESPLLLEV
Test [2] addresses human neutrophil elastase (Homo sapiens (Human), UniProt P08246). Nature of the test: Chromogenic enzyme activity assay, elastase. The class given is biochemical. As to conditions: for Ki: human neutrophil elastase.
For the next test, the target named is human HTRA2 (Homo sapiens (Human), UniProt O43464). Nature of the test: Chromogenic enzyme activity assay, HTRA2. As to conditions: for fold gain in HTRA2 potency relative to Ahp1: compared with Ahp1.
Sequence of human HTRA2 (O43464 134-458): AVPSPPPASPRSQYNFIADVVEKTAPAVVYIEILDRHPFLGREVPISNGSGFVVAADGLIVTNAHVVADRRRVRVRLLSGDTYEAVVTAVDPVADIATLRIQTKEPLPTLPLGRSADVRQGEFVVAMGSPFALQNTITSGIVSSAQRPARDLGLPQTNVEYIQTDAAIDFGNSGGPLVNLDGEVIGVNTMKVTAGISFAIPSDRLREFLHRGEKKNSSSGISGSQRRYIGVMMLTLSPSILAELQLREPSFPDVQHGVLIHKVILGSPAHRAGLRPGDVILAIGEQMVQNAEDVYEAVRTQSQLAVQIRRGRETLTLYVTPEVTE
Test [3] deals with human bone marrow-derived stromal cells (hBMSCs). The test can be described thus: HTRA1-mediated hBMSC osteogenesis, matrix mineralization by Alizarin Red S staining. Conditions: 10 μM compound, with HTRA1 or inactive HTRA1 S328A. The class given is cell-based. The protocol:
Human BMSCs (hBMSCs) (Lonza Verviers, Belgium) were maintained in normal growth medium consisting of Dulbecco's modified eagle medium (DMEM-low glucose, with Glutamax) (Thermo Fisher Scientific, Reinach, Switzerland), supplemented with 10% fetal bovine serum (FBS) (Bioswisstec, Schaffhausen, Switzerland) and penicillin (50 units mL^−1) and streptomycin (50 μg mL^−1), and used between passage 2 and 6. The osteogenic differentiation of hBMSCs was performed as previously described in the art. Briefly, hBMSCs were seeded at 10′000 cells cm-2 in 24-well cell culture plates, and incubated for up to 14 days in osteogenic medium consisting of normal growth medium supplemented with ascorbic acid (50 μM), β-glycerophosphate (10 mM) and dexamethasone (100 nM) (all from Sigma-Aldrich, Buchs, Switzerland). Cells were replenished with fresh medium every 3-4 days. […] Mineralized matrix deposition by hBMSC-derived bone forming cells was visualized using Alizarin Red S, and the amount of staining quantified by determining the absorption at 570 nm using a multiplate reader (Infinite M200, Tecan) following extraction with 10% cetylpyridinium chloride (Sigma-Aldrich).

A value given as a limit tells only on which side of the number the result lay.

Sequence of human neutrophil elastase (P08246 30-267): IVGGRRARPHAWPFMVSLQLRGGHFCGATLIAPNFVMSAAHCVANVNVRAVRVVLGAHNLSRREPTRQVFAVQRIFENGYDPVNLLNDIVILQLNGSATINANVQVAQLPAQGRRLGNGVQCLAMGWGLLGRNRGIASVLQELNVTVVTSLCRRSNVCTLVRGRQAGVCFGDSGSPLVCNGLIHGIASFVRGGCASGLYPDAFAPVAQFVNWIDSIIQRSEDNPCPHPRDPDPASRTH
Sequence of bovine pancreas trypsin (P00760 24-246): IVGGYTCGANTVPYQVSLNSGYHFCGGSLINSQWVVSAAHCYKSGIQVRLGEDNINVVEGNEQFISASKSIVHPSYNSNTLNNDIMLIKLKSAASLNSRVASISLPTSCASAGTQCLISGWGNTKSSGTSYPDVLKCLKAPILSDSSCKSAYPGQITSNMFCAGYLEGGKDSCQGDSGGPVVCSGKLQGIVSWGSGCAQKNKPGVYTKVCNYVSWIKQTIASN

Usually Ki stands for a dissociation constant, usually derived from enzyme kinetics or from competition with a known ligand. Turning to `CC(C)C[C@H]1C(=O)N(C)[C@@H](Cc2ccccc2)C(=O)N[C@@H](C(C)C)C(=O)O[C@H](C)[C@H](NC(=O)[C@H](C)NC(=O)[C@H](C)NC(=O)OCc2ccccc2)C(=O)N[C@@H](C(C)C)C(=O)N[C@H]2CC[C@@H](O)N1C2=O` [Ahp1], the Ki (in test [1]; on bovine pancreas trypsin) was above 50 µM in each case. Moreover, the “HTRA1 inhibition, in words” value at human HTRA1 is “inhibited”. Also, on human HTRA3, the “HTRA3 inhibition, in words” value is recorded as “inhibited”.

As to `CC(C)C[C@H]1C(=O)N(C)[C@@H](Cc2ccccc2)C(=O)N[C@@H](C(C)C)C(=O)O[C@H](C)[C@H](NC(=O)[C@H](C)NC(=O)[C@H](C)NC(=O)OCc2ccccc2)C(=O)N[C@@H](Cc2ccccc2)C(=O)N[C@H]2CC[C@@H](O)N1C2=O` [Ahp2], in test [1], the “chymotrypsin inhibition, in words” value is given as “enhanced chymotrypsin inhibition” and the Ki worked out at 0.37 ± 0.08 µM. In test [2], the “elastase inhibition, in words” value is “significantly reduced”. Besides, the “HTRA1 inhibition, in words” value at human HTRA1 is listed as “significantly reduced”. Also, at human HTRA2, the “HTRA2 inhibition, in words” value was “significantly reduced”. In addition, the “HTRA3 inhibition, in words” value on human HTRA3 is listed as “significantly reduced”.

`CC(C)C[C@H]1C(=O)N(C)[C@@H](Cc2ccccc2)C(=O)N[C@@H](C(C)C)C(=O)O[C@H](c2ccccc2)[C@H](NC(=O)[C@H](C)NC(=O)[C@H](C)NC(=O)OCc2ccccc2)C(=O)N[C@@H](C(C)C)C(=O)N[C@H]2CC[C@@H](O)N1C2=O` [Ahp3]: the Ki in test [1] is above 50 µM; in test [2] (Table 2), 0.21 ± 0.06 µM; on bovine pancreas trypsin, above 50 µM; at human HTRA1, above 50 µM; on human HTRA2, 0.27 ± 0.07 µM; on human HTRA3, 3.1 ± 0.6 µM. Besides, the “HTRA3 inhibition, in words” value on human HTRA3 is given as “inhibited”.

As to `CC(C)C[C@H]1C(=O)N(C)[C@@H](Cc2ccccc2)C(=O)N[C@@H](C(C)C)C(=O)O[C@H](C)[C@H](NC(=O)[C@H](Cc2ccccc2)NC(=O)[C@H](C)NC(=O)OCc2ccccc2)C(=O)N[C@@H](C(C)C)C(=O)N[C@H]2CC[C@@H](O)N1C2=O` [Ahp4], the Ki is above 50 µM in test [1]; 0.33 ± 0.06 µM in test [2] (Table 2); above 50 µM at bovine pancreas trypsin; above 50 µM on human HTRA1; 0.49 ± 0.11 µM at human HTRA2; above 50 µM on human HTRA3. For the same compound, the “HTRA2 inhibition, in words” value at human HTRA2 is “sub-μM inhibition potencies”. At human HTRA2, the “fold gain in HTRA2 potency relative to Ahp1” value is “more than ten-fold”.

Regarding `CC(C)[C@@H]1NC(=O)[C@@H](NC(=O)[C@H](C)NC(=O)[C@H](C)NC(=O)OCc2ccccc2)[C@@H](C)OC(=O)[C@H](C(C)C)NC(=O)[C@H](Cc2ccccc2)N(C)C(=O)[C@H](Cc2ccccc2)N2C(=O)[C@H](CC[C@H]2O)NC1=O` [Ahp6], the Ki is above 50 µM in test [1]; 8 ± 1.8 µM in test [2] (Table 2); above 50 µM at bovine pancreas trypsin; 10.3 ± 3 µM on human HTRA1; 2.1 ± 0.3 µM at human HTRA2; above 50 µM at human HTRA3. Moreover, on human HTRA1, the “HTRA1 inhibition, in words” value is reported as “inhibited”.

Turning to `CC(C)C[C@H]1C(=O)N(C)[C@@H](C)C(=O)N[C@@H](C(C)C)C(=O)O[C@H](C)[C@H](NC(=O)[C@H](C)NC(=O)[C@H](C)NC(=O)OCc2ccccc2)C(=O)N[C@@H](C(C)C)C(=O)N[C@H]2CC[C@@H](O)N1C2=O` [Ahp7], the Ki (in test [1]; on bovine pancreas trypsin) was above 50 µM in each case. The “elastase inhibition, in words” value in test [2] is “low μM or even sub-μM”.

Regarding `CC(C)C[C@H]1C(=O)N(C)[C@@H](Cc2ccccc2)C(=O)N[C@@H](Cc2ccccc2)C(=O)O[C@H](C)[C@H](NC(=O)[C@H](C)NC(=O)[C@H](C)NC(=O)OCc2ccccc2)C(=O)N[C@@H](C(C)C)C(=O)N[C@H]2CC[C@@H](O)N1C2=O` [Ahp8], the Ki was above 50 µM in test [1]; 0.32 ± 0.05 µM in test [2] (Table 2); above 50 µM on bovine pancreas trypsin; above 50 µM on human HTRA1; 2.3 ± 0.2 µM at human HTRA2; 9.5 ± 0.9 µM at human HTRA3. In addition, the “HTRA3 inhibition, in words” value on human HTRA3 is given as “inhibited”.

`CC(C)C[C@@H]1NC(=O)[C@@H](NC(=O)[C@H](C)NC(=O)[C@H](C)NC(=O)OCc2ccccc2)[C@@H](C)OC(=O)[C@H](C(C)C)NC(=O)[C@H](Cc2ccccc2)N(C)C(=O)[C@H](CC(C)C)N2C(=O)[C@H](CC[C@H]2O)NC1=O` [Ahp9]: the “HTRA2 inhibition, in words” value on human HTRA2 is reported as “slightly better HTRA2 inhibitory properties than Ahp1”.

As to `CC(C)C[C@H]1C(=O)N(C)[C@@H](Cc2ccccc2)C(=O)N[C@@H](C(C)C)C(=O)O[C@H](C(C)C)[C@H](NC(=O)[C@H](C)NC(=O)[C@H](C)NC(=O)OCc2ccccc2)C(=O)N[C@@H](C(C)C)C(=O)N[C@H]2CC[C@@H](O)N1C2=O` [Ahp10], the Ki in test [1] was above 50 µM. For the same compound, the “elastase inhibition, in words” value in test [2] is on record as “lowered the Ki”. For the same compound, at bovine pancreas trypsin, the inhibition constant Ki was above 50 µM. In addition, the “inhibition of HTRA1-mediated hBMSC osteogenesis (matrix mineralization)” value in test [3] is recorded as “significantly inhibited”. Further, the “HTRA1 inhibition, in words” value at human HTRA1 is listed as “lowered the Ki”. Also, on human HTRA2, the “HTRA2 inhibition, in words” value is given as “sub-μM Ki” and the “fold gain in HTRA2 potency relative to Ahp1” value is 15 fold.

Turning to `CC(C)C[C@H]1C(=O)N(C)[C@@H](Cc2ccccc2)C(=O)N[C@@H](C(C)C)C(=O)O[C@H](C(C)C)[C@H](NC(=O)[C@H](C)NC(=O)CCc2ccccc2)C(=O)N[C@@H](C(C)C)C(=O)N[C@H]2CC[C@@H](O)N1C2=O` [Ahp11], the “HTRA2 inhibition, in words” value on human HTRA2 is listed as “moderate inhibition”. Also, the “HTRA3 inhibition, in words” value at human HTRA3 was “moderate inhibition”.

As for `CC(C)C[C@H]1C(=O)N(C)[C@@H](Cc2ccccc2)C(=O)N[C@@H](C(C)C)C(=O)O[C@H](C)[C@H](NC(=O)[C@H](C)NC(=O)[C@H](C)NC(=O)OCc2ccccc2)C(=O)N[C@@H](C)C(=O)N[C@H]2CC[C@@H](O)N1C2=O` [Ahp13], at human HTRA1, the “HTRA1 inhibition, in words” value is “enhanced inhibitory activity”. For the same compound, the “HTRA2 inhibition, in words” value on human HTRA2 was “enhanced inhibitory activity”. For the same compound, the “HTRA3 inhibition, in words” value on human HTRA3 is “enhanced inhibitory activity”.

With `CC[C@@H]1NC(=O)[C@@H](NC(=O)[C@H](C)NC(=O)[C@H](C)NC(=O)OCc2ccccc2)[C@@H](C)OC(=O)[C@H](C(C)C)NC(=O)[C@H](Cc2ccccc2)N(C)C(=O)[C@H](CC(C)C)N2C(=O)[C@H](CC[C@H]2O)NC1=O` [Ahp14], at human HTRA1, the “HTRA1 inhibition, in words” value is “enhanced inhibitory activity”. Besides, at human HTRA2, the “HTRA2 inhibition, in words” value is reported as “enhanced inhibitory activity”. Moreover, the “HTRA3 inhibition, in words” value on human HTRA3 is recorded as “enhanced inhibitory activity”.

On to `CC(C)C[C@H]1C(=O)N(C)[C@@H](Cc2ccccc2)C(=O)N[C@@H](C(C)C)C(=O)O[C@H](C)[C@H](NC(=O)[C@H](C)NC(=O)[C@H](C)NC(=O)OCc2ccccc2)C(=O)N[C@@H](C2CC2)C(=O)N[C@H]2CC[C@@H](O)N1C2=O` [Ahp19], for which the Ki in test [2] (Table 3) was 1.93 µM; at human HTRA1, 1.24 µM; on human HTRA2, 1.11 µM; at human HTRA3 it was 0.74 µM. In addition, the “HTRA1 inhibition, in words” value at human HTRA1 is given as “enhanced inhibitory activity”. The “HTRA2 inhibition, in words” value at human HTRA2 was “enhanced inhibitory activity”. Also, on human HTRA3, the “HTRA3 inhibition, in words” value is on record as “enhanced inhibitory activity”.

As to `CC(C)C[C@H]1C(=O)N(C)[C@@H](Cc2ccccc2)C(=O)N[C@@H](C(C)C)C(=O)O[C@H](C)[C@H](NC(=O)[C@H](C)NC(=O)[C@H](C)NC(=O)OCc2ccccc2)C(=O)N[C@@H](C(C)(C)C)C(=O)N[C@H]2CC[C@@H](O)N1C2=O` [Ahp20], the inhibition constant Ki in test [2] (Table 3) is 4.32 µM; on human HTRA1, above 50 µM; on human HTRA2, above 50 µM; on human HTRA3, 8.3 µM.

Source of the values: patent publication US11149067B2, “Tailored cyclodepsipeptides as potent non-covalent serine protease inhibitors” (UNIVERSITÄT DUISBURG-ESSEN, priority 2017, dated 2021).
